# Measurements reported in patent publication US20240336642A1 (The General Hospital Corporation, priority 2021, published 2024).
# Legend:
# [1] = Solubility in formulation vehicles (Solutol HS-15/PEG400, Captisol); format: physicochemical; conditions: 10% Solutol/90% PEG400
# Protocol: Combinations of Solutol HS-15 (also known as Kolliphor HS-15) with PEG400 provided a good vehicle to solubilize the tested compounds. Specifically, 10% Solutol/90% PEG400 was used to prepare 20 mg/ml solutions of compound 1, compound 44, and compound 32. 10% Solutol/15% H2O/[…] led to 10 mg/ml solutions of the tested compounds.
# 20 mg/ml were obtained in 20% Captisol, allowing for intravenous delivery in the mouse stroke model.
# [2] = target: Human 12/15-LOX E. coli (Homo sapiens (Human), UniProt P16050); test: Human 12/15-LOX E. coli IC50; format: biochemical
# [3] = system: Mouse HT22; test: Mouse HT22 EC50; format: cell-based; conditions: HT-22
# [4] = system: SAH wild-type mice; test: Subarachnoid hemorrhage (SAH) mouse model; format: in vivo; conditions: wild-type mice with SAH
# Description: The effect of the exemplified compounds (which are, e.g., inhibitors of 12/15-LOX as discussed herein) on treating bran injury after subarachnoid hemorrhage can be assessed in a mouse model as described, for example, in Gaberel et al, Stroke, 2019, 50, 520-523, which is incorporated herein by reference in its entirety. Subarachnoid hemorrhage (SAH) is a devastating form of stroke. It may lead to substantial brain injury. The mouse model to study the impact of 12/15-LOX inhibitors on subarachnoid hemorrhage includes C57Bl6 wild-type mice and Alox15 knockout mice. These mice are subjected to SAH using direct blood injection technique. […] Immunohistochemistry, brain edema, blood-brain barrier leakage and functional outcomes were assessed 1 and 3 days after SAH induction. […]
# All animal experiments were performed following protocols approved by the Massachusetts General Hospital Institutional Animal Care and Use Committee in accordance with the National Institutes of Health Guide for the Care and Use of Laboratory Animals. […] Sample sizes were evaluated as follows: based on prior experience, coefficients of variation around 35% between mice are expected. […]
# Except the mice used for IHC 24 h after SAH induction, all mice were assessed at 72 hours using a 4-point Neuroscore scale, a 18 point Neuroscore scale, and by evaluating spontaneous activity. […]
# [5] = target: Human 12/15-LOX HEK (Homo sapiens (Human), UniProt P16050); test: Human 12/15-LOX HEK EC50; format: cell-based
# [6] = system: experimental stroke model in mice (MCAO); test: Long-term outcome after MCAO: corner test; format: in vivo, mouse; conditions: 40 mg/kg i.v. 2 hours post reperfusion
# Protocol: Long-term outcome experiment: 40 mg/kg cmpd. 1 delivered I.V. 2 hours post reperfusion, same as short term, compared to vehicle (10% solutol/90% PEG400). 45 mice operated, and 27 survived, mice were sacrificed on day 30.
# Sequence of Human 12/15-LOX E. coli (P16050 whole entry): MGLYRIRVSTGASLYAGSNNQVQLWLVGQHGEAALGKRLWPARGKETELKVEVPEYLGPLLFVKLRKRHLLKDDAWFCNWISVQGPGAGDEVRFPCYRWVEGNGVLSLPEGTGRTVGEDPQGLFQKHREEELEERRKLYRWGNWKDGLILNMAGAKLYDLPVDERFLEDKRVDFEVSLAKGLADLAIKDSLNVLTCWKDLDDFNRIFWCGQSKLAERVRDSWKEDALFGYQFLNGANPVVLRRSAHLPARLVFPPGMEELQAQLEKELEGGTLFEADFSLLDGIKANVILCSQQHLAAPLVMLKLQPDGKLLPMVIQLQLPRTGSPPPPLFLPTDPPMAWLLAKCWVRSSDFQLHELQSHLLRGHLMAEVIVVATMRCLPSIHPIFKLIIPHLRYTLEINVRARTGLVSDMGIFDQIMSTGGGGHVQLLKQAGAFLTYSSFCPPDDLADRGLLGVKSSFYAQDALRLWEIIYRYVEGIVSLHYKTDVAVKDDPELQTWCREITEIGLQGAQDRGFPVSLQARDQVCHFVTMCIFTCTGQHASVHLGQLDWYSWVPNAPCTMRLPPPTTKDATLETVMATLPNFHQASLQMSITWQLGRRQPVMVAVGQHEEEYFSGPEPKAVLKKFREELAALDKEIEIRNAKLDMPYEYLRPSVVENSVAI
# Sequence of Human 12/15-LOX HEK (P16050 whole entry, the tested form may be a part): as the sequence (P16050 whole entry) above
compound,measurement,setting,value
"CNc1oc(-c2cc(Cl)cc(Cl)c2Cl)nc1C#N [Compound 1, 5-(methylamino)-2-(2,3,5-trichlorophenyl) oxazole-4-carbonitrile]",solution concentration achieved,[1],20 mg/mL
same,Human 12/15-LOX E. coli % max,[2],88%
same,IC50,[2],110 nM
same,EC50,[3],5 µM
same,Neuronal cell death after SAH,[4],reduced
same,EC50,[5],920 nM
same,"Corner test, improvement compared to vehicle treatment",[6]; Week 1,68.7%
same,"Corner test, improvement compared to vehicle treatment",[6]; Week 4,75.4%
